Measured values: publication PMC8717366, “Synthesis and Pharmacological Characterization of Visabron, a Backbone Cyclic Peptide Dual Antagonist of α4β1 (VLA-4)/α9β1 Integrin for Therapy of Multiple Sclerosis” (JACS Au, 2021)
Where two headings read alike, the source gives them in different places. Numbered stars: 1 amine (or outer) side, 2 acyl side, 3 side chain; on linkers, the order of the positions; unused ones are H or OH. Bridge positions count the residues as written; N and C are the ends. Square brackets hold non-standard residues; d marks the D form. Peptide text beside a SMILES is read from it. N(6-aminohexyl)Gly = O=C(CN(CCCCCCN[*:3])[*:1])[*:2]; CO = O=C([*:1])[*:2]; Nlys = NCCCCNCC(=O)O

Assays:
[1] = molecular target: T1, α4β1 (Jurkat lymphocytes-VCAM-1) (Homo sapiens, UniProt P05556+P13612); test: Adhesion of Jurkat lymphocytes to immobilized VCAM-1; assay type: cell-based
T1 construct: host or cells: Jurkat (untreated or TNFα-treated)
T1 sequence (P13612 34-1032): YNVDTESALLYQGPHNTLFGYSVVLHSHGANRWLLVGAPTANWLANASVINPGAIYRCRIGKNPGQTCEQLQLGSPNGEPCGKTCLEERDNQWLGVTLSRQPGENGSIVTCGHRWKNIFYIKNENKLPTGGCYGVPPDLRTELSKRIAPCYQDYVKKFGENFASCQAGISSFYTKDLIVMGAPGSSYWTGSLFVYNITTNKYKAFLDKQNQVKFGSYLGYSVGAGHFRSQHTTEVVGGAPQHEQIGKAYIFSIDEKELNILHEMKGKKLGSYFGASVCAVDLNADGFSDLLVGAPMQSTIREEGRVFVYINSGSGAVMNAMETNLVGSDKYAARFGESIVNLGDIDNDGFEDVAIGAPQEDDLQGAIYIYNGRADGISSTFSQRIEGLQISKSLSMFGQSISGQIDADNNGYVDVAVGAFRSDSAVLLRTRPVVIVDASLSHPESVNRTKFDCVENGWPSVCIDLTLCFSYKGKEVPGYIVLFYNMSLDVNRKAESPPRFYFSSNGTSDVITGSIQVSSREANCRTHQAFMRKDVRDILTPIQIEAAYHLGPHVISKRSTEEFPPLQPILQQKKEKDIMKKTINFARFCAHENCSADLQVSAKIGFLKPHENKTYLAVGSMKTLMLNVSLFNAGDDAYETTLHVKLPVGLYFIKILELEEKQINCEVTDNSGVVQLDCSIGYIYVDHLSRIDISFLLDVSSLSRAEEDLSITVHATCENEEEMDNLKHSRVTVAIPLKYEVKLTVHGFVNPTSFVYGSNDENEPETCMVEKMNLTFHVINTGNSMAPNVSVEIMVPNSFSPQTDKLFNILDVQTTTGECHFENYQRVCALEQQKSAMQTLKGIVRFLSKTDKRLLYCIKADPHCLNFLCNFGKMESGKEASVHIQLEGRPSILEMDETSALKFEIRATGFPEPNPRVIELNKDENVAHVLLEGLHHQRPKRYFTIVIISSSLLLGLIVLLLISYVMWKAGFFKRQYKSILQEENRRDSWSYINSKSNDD
T1 sequence (P05556 21-798): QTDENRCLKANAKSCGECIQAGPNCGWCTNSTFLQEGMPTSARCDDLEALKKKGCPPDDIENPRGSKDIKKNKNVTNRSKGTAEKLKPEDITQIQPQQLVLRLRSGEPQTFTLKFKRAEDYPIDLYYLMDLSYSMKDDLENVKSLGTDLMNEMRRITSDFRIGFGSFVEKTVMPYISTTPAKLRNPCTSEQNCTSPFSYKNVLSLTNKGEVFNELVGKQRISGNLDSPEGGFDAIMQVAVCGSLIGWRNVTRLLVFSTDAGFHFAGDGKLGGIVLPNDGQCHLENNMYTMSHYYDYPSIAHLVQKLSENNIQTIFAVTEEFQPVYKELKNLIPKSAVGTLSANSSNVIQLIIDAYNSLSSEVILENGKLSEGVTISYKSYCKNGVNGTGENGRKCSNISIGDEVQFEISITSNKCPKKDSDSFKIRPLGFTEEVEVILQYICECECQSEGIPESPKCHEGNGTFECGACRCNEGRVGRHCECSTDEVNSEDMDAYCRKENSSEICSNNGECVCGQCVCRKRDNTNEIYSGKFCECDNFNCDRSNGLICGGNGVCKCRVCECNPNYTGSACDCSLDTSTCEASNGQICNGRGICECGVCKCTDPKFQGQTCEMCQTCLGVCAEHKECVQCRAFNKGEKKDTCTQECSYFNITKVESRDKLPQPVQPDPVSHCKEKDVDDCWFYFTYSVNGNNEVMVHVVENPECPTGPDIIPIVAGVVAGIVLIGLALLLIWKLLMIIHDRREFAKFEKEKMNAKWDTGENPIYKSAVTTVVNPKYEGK
Experimental: (§1) Cell adhesion assay was carried out as previously described[47] with minor modifications. The day before the experiment, each well was coated with VCAM-1 (3 mg/mL) immobilized on the 96-well plate in PBS by overnight incubation at 4 °C. Thereafter, nonspecific binding was blocked by incubating the wells with 1% (w/v) bovine serum albumin (BSA) in Hank’s Balanced Salt Solution (HBSS) containing 5 mM MgCl2 at room temperature for 1 h before use. The cells were labeled by incubation with 12.5 μM 5-chloromethylfluorescein diacetate (CMFDA) in HBSS without 1% BSA at 37 °C for 30 min. The labeled cells were then centrifuged at 1000 rpm and washed twice with HBSS containing 1% BSA to remove excess CMFDA. Labeled cells (about 1 × 10^5 cells/well) were plated on each well in the presence or absence of visabrons and incubated at 37 °C for 60 min. Unbound cells were removed by washing the wells three times with 1% (w/v) BSA in HBSS, and bound cells were lysed by the addition of 0.5% Triton X-100 (diluted in DDW). The fluorescence in each well was quantified with a SPECTRAFluor Plus plate reader (Tecan), at λex = 485 nm and λem = 530 nm. To determine the number of adhered cells from the fluorescence values, a standard curve was generated by serial dilution of known numbers of CMFDA-labeled cells. […]
(§2) Table S6. TMLD- linear peptides inhibition of adhesion of integrin expressing cells to the respective immobilized ligands a a The cells were incubated for 30 min at 37 °C with the cells (1 x 105) in the 96 -well plate, previously covered with extracellular matrix ligand, in 100 µL of HBSS containing calcium and magnesium. After being washed with the same buffer, the adhered cells were lysed by Triton X-100, and the plate was read using Tecan spectrofluorimeter. The inhibitory dose 50% (IC 50) values represent ing mean ± standard deviatio ns (n=6) were calculated from dose response curves. bJurkat cells,VCAM -1; c α9-SW480 overexpressing cells, VCAM-1; d α1-K562 overexpressing cells, collagen IV ;e α2-K562 overexpressing cells, collagen I; f K562 wild type

α2β1-collagen I = molecular target: T2, α2β1-collagen I (Homo sapiens, UniProt P05556+P17301); test: Adhesion of α2-K562 overexpressor cells to immobilized collagen I; assay type: cell-based
T2 construct: expressed in transfected cells; host or cells: K562 transfected with α2 integrin (gift of Dr. M. Hemler)
T2 sequence (P17301 30-1181): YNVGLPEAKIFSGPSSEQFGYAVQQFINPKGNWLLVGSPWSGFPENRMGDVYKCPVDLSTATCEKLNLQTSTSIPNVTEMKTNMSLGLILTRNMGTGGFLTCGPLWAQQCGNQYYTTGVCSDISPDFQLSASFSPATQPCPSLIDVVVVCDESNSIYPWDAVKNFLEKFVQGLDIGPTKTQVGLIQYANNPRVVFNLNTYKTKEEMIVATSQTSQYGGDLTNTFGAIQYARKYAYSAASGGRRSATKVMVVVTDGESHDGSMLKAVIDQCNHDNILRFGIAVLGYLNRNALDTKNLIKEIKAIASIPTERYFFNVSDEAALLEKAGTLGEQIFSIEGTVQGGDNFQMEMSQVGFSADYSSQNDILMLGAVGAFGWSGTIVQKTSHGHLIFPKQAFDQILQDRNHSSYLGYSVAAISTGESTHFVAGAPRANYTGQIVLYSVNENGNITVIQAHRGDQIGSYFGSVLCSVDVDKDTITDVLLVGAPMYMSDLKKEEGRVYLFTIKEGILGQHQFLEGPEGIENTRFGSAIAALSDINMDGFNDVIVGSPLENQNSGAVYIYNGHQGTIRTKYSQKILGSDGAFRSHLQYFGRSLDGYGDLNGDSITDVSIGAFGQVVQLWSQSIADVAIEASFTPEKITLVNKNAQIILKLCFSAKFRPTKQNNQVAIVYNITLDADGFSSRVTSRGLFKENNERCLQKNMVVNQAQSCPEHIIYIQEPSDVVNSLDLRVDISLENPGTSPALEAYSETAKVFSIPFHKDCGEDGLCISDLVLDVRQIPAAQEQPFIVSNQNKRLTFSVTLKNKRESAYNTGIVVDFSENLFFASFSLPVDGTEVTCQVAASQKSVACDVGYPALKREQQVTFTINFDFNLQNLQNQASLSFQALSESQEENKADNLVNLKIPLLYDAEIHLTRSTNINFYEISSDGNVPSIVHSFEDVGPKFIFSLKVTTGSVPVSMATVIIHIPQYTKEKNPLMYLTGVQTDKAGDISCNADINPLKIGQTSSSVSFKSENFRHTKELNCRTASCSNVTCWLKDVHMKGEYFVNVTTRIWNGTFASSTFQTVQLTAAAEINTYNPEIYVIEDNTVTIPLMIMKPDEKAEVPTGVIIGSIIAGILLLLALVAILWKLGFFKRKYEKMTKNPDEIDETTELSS
T2 sequence (P05556 21-798): as the sequence (P05556 21-798) above
Experimental: as §1, §2

α1β1-collagen IV = molecular target: T3, α1β1-collagen IV (Homo sapiens, UniProt P05556+P56199); test: Adhesion of α1-K562 overexpressor cells to immobilized collagen IV; assay type: cell-based
T3 construct: expressed in transfected cells; host or cells: K562 transfected with α1 integrin (gift of Dr. M. Hemler)
T3 sequence (P56199 29-1179): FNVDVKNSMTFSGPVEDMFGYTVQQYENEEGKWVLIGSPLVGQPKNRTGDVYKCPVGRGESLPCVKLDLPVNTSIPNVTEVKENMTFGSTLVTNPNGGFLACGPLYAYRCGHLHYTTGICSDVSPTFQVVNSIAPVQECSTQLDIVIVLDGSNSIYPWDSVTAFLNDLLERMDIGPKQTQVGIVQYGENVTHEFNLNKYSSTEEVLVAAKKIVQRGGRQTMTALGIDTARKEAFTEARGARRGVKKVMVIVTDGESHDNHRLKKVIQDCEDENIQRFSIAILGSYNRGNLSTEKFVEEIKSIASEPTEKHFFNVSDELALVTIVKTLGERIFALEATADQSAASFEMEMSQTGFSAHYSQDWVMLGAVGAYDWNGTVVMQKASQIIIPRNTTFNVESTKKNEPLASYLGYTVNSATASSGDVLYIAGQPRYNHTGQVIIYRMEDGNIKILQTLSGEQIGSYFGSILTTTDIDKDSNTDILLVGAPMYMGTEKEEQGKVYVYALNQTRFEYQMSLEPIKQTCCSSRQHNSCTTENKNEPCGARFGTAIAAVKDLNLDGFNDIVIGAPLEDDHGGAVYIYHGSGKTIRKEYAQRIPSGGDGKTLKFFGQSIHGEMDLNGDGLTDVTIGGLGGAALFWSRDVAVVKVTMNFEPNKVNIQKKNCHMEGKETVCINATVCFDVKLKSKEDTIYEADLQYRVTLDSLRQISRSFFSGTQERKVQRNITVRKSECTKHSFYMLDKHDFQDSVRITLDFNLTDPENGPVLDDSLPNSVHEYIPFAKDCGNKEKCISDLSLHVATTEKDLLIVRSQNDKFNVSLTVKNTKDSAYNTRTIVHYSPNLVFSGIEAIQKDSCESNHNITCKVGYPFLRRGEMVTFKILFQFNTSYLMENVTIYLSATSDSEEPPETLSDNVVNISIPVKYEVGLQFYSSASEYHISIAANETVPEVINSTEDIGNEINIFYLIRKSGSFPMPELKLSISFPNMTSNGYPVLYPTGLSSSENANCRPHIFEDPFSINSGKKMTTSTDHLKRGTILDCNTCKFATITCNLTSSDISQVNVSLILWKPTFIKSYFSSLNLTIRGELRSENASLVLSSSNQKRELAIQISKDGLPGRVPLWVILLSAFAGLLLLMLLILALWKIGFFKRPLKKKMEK
T3 sequence (P05556 21-798): as the sequence (P05556 21-798) above
Experimental: as §1, §2

α5β1-fibronectin = molecular target: T4, α5β1-fibronectin (Homo sapiens, UniProt P05556+P08648); test: Adhesion of wild-type K562 cells to immobilized fibronectin; assay type: cell-based
T4 construct: host or cells: K562 wild type
Experimental: as §1, §2

α4β1-VCAM-1 Fc chimera = molecular target: T5, α4β1-VCAM-1 Fc chimera (Homo sapiens, UniProt P05556+P13612); test: ELISA solid-phase ligand-receptor binding, integrin α4β1 to VCAM-1 Fc chimera
T5 construct: purchased R&D Systems Co (Minneapolis, MN)
Experimental: (§3) Recombinant human VCAM-1 and MadCAM-1 (3 mg/mL in phosphate-buffered saline containing divalent cations), were immobilized on the wells of a 96-well ELISA plate (Dynatech Immulon) by overnight incubation at 4 °C. After washing with HBSST (Hanks’ Balanced Salt solution containing calcium and magnesium and 0.05% Tween-20) the plates were blocked with 5% BSA in HBSST by incubation at 37 °C for 1 h. The plates were washed with HBSST, and recombinant human integrin α4β1 or α4β7 (3 mg/mL) was added in the presence or absence of competitor cyclic peptides, disintegrins, or monoclonal anti-integrin antibodies dissolved in HBSS containing 1% BSA. The plates were thereafter incubated at 30 °C for 3 h, as time-binding had reached a plateau, and then washed 3 times with HBSST. Bound integrins were quantitated using primary anti-integrin polyclonal and monoclonal antibodies at a concentration of 0.5 mg/mL in HBSST containing 1% BSA, and incubated at 37 °C for 1 h. The plates were washed 3 times with HBSST and secondary antibodies- alkaline phosphatase (AP) conjugated (Sigma Co.) were added at dilution 1:1000 and incubated at 37 °C for 1 h. Thereafter, the plates were washed 3 times with HBSST and twice with HBSS and the alkaline phosphatase substrate 4-nitrophenyl phosphate was added to the wells for 30 min. The plates were read using Tecan Spectrophotometer at 405 nm. The level of nonspecific binding was measured in each experiment by determining the level of binding to wells coated with BSA alone.

α9β1-VCAM-1 Fc chimera = α9β1-VCAM-1 Fc chimera (Homo sapiens, UniProt P05556+Q13797); test: ELISA binding assay, α9β1 to VCAM-1 Fc chimera
α9β1 = molecular target: T6, α9β1 (Homo sapiens, UniProt P05556+Q13797); test: Adhesion of α9-SW480 overexpressing cells to VCAM-1; assay type: cell-based; conditions: n=6, Table S6, read-out: IC50 α9β1 (linear peptides)
T6 construct: generated by transfection with full-length α9 expression plasmid pcDNAIneoa9; expressed in transfected cells; host or cells: SW480 transfected with pcDNAIneoa9
Experimental: as §2, with “type […]” for “type”
(1 picture or pasted object on this page, not shown here)

[2] = tested on: U937 macrophages-VCAM-1 (α4β1, αMβ2, α3β1, α6β1); test: Adhesion of U937 macrophages to immobilized VCAM-1; assay type: cell-based, human
Experimental: Cell adhesion assay was carried out as previously described[47] with minor modifications. The day before the experiment, each well was coated with VCAM-1 (3 mg/mL) immobilized on the 96-well plate in PBS by overnight incubation at 4 °C. Thereafter, nonspecific binding was blocked by incubating the wells with 1% (w/v) bovine serum albumin (BSA) in Hank’s Balanced Salt Solution (HBSS) containing 5 mM MgCl2 at room temperature for 1 h before use. The cells were labeled by incubation with 12.5 μM 5-chloromethylfluorescein diacetate (CMFDA) in HBSS without 1% BSA at 37 °C for 30 min. The labeled cells were then centrifuged at 1000 rpm and washed twice with HBSS containing 1% BSA to remove excess CMFDA. Labeled cells (about 1 × 10^5 cells/well) were plated on each well in the presence or absence of visabrons and incubated at 37 °C for 60 min. Unbound cells were removed by washing the wells three times with 1% (w/v) BSA in HBSS, and bound cells were lysed by the addition of 0.5% Triton X-100 (diluted in DDW). The fluorescence in each well was quantified with a SPECTRAFluor Plus plate reader (Tecan), at λex = 485 nm and λem = 530 nm. To determine the number of adhered cells from the fluorescence values, a standard curve was generated by serial dilution of known numbers of CMFDA-labeled cells.

α4β7-MAdCAM-1 Fc chimera = molecular target: T7, α4β7-MAdCAM-1 Fc chimera (Homo sapiens, UniProt P13612+P26010); test: ELISA solid-phase ligand-receptor binding, integrin α4β7 to MAdCAM-1 Fc chimera
T7 construct: purchased R&D Systems Co (Minneapolis, MN)
Experimental: as §3

[3] = Jurkat treated with TNF-α (10 ng/mL) for 24 h, read-out: IC50 Jurkat lymphocytes-VACAM-1 TNFα
[4] = untreated Jurkat lymphocytes (α4β1), read-out: IC50 Jurkat lymphocytes-VACAM-1 control
[5] = α2-K562 overexpressed cells, 30 min at 37 °C, read-out: IC50 α2β1-collagen I
[6] = α1-K562 overexpressed cells, 30 min at 37 °C, read-out: IC50 α1β1-collagen IV
[7] = wild-type K562 (α5β1), 30 min at 37 °C, read-out: IC50 α5β1-fibronectin
[8] = Jurkat cells, VCAM-1, n=6, Table S6, read-out: IC50 α4β1 (linear peptides)
[9] = α2-K562 overexpressing cells, collagen I, n=6, Table S6, read-out: IC50 α2β1 (linear peptides)
[10] = α1-K562 overexpressing cells, collagen IV, n=6, Table S6, read-out: IC50 α1β1 (linear peptides)
[11] = K562 wild type cells, fibronectin, n=6, Table S6, read-out: IC50 α5β1 (linear peptides)

SMILES	IC50 [1, 3]	IC50 [1, 4]	IC50 (α2β1-collagen I; [5])	IC50 (α1β1-collagen IV; [6])	IC50 (α5β1-fibronectin; [7])	IC50 (α4β1-VCAM-1 Fc chimera)	IC50 (α9β1-VCAM-1 Fc chimera)	IC50 [1, 8]	IC50 (α2β1-collagen I; [9])	IC50 (α1β1-collagen IV; [10])	IC50 (α9β1)	IC50 (α5β1-fibronectin; [11])	IC50 ([2]; U937 treated with PMA (10 ng/mL) for 24 h, read-out: IC50 U937 macrophages-VCAM-1 PMA)	IC50 ([2]; untreated U937, read-out: IC50 U937 macrophages-VCAM-1 control)	IC50 (α4β7-MAdCAM-1 Fc chimera)
CSCC[C@@H]1NC(=O)[C@H]([C@@H](C)O)NC(=O)CN(C(=O)[C@@H](N)CCCNC(=N)N)CCCCNC(=O)NCCCCN(CC(=O)N[C@@H](CC(C)C)C(N)=O)C(=O)[C@H](CC(=O)O)NC(=O)[C@H](CC(C)C)NC1=O [Arg-visabron c (4–4)] (H-R[Nlys]TMLD[Nlys]L-NH2; linker 2-7 via CO; N-terminus assumed)	> 5000 µM	> 5000 µM	> 10000 µM	> 10000 µM	> 10000 µM	> 10000 µM	> 10000 µM	–	–	–	–	–	–	–	–
CSCC[C@H](NC(=O)[C@@H](NC(=O)[C@H](CCCNC(=N)N)NC(=O)[C@H](CCCCN)NC(=O)[C@@H](N)CS)[C@@H](C)O)C(=O)N[C@@H](CC(C)C)C(=O)N[C@@H](CC(=O)O)C(=O)NCC(=O)N[C@@H](CC(C)C)C(=O)N[C@@H](CC(N)=O)C(=O)N[C@@H](CC(=O)O)C(=O)N[C@@H](Cc1ccc(O)cc1)C(=O)N[C@@H](CS)C(N)=O [sequence 3, CKRTMLDGLNDYC] (H-CKRTMLDGLNDYC-NH2; N-terminus and C-terminus assumed)	–	–	–	–	–	–	–	1450 ± 105 µM	> 10000 µM	> 10000 µM	1250 ± 95 µM	> 10000 µM	–	–	–
CSCC[C@H](NC(=O)[C@H](C)NC(=O)[C@H](CCCNC(=N)N)NC(=O)[C@H](CCCCN)NC(=O)[C@@H](N)CS)C(=O)N[C@@H](CC(C)C)C(=O)N[C@@H](CC(=O)O)C(=O)NCC(=O)N[C@@H](CC(C)C)C(=O)N[C@@H](CC(N)=O)C(=O)N[C@@H](CC(=O)O)C(=O)N[C@@H](Cc1ccc(O)cc1)C(=O)N[C@@H](CS)C(N)=O [sequence 4, CKRAMLDGLNDYC] (H-CKRAMLDGLNDYC-NH2; N-terminus and C-terminus assumed)	–	–	–	–	–	–	–	3910 ± 80 µM	> 10000 µM	> 10000 µM	2840 ± 115 µM	> 10000 µM	–	–	–
CSCC[C@H](NC(=O)[C@@H](NC(=O)[C@H](CCCNC(=N)N)NC(=O)[C@@H](N)CCCCN)[C@@H](C)O)C(=O)N[C@@H](CC(C)C)C(=O)N[C@@H](CC(=O)O)C(=O)NCC(=O)N[C@@H](CC(C)C)C(N)=O [sequence 5, KRTMLDGL] (H-KRTMLDGL-NH2; N-terminus and C-terminus assumed)	–	–	–	–	–	–	–	1310 ± 95 µM	> 10000 µM	> 10000 µM	1260 ± 80 µM	> 10000 µM	–	–	–
CSCC[C@@H]1NC(=O)[C@H]([C@@H](C)O)NC(=O)CN(C(=O)[C@@H](N)CCCCN)CCCCCCNC(=O)NCCCCCCN(CC(=O)N[C@@H](CC(C)C)C(N)=O)C(=O)[C@H](CC(=O)O)NC(=O)[C@H](CC(C)C)NC1=O [visabron c (6–6)] (H-K[N(6-aminohexyl)Gly]TMLD[N(6-aminohexyl)Gly]L-NH2; linker 2-7 via CO)	4 µM	5 µM	> 10000 µM	> 10000 µM	> 10000 µM	0.7 µM	0.9 µM	–	–	–	–	–	15 µM	20 µM	> 500 µM
